For three compounds, IC50 results are on record in patent US20160304556A1, “[…] ACTIVE COMPOUNDS AND THEIR METHODS OF USE” (AGIOS PHARMACEUTICALS, INC, priority 2012, published 2016).

For assay [1], the target named is IDH1 R132C (Homo sapiens, UniProt O75874, R132C). Put plainly: In vitro NADPH depletion assay for IDH1m R132C inhibitors. The class given is biochemical. The note with it: enzyme, diaphorase/resazurin readout, read-out: IDH R132C IC50. The method, then:
A test compound is prepared as 10 mM stock in DMSO and diluted to 50× final concentration in DMSO, for a 50 μl reaction mixture. IDH enzyme activity converting alpha-ketoglutarate to 2-hydroxyglutaric acid is measured using a NADPH depletion assay. In the assay the remaining cofactor is measured at the end of the reaction with the addition of a catalytic excess of diaphorase and resazurin, to generate a fluorescent signal in proportion to the amount of NADPH remaining. IDH1-R132 homodimer enzyme is diluted to […] in 40 μl of Assay Buffer(150 mM NaCl, 20 mM Tris-Cl pH 7.5, 10 mM MgCl2, 0.05% BSA, 2 mM b-mercaptoethanol); 1 μl of test compound dilution in DMSO is added and the mixture is incubated for 60 minutes at room temperature. The reaction is started with the addition of 10 μl of Substrate Mix ([…], 5 mM alpha-ketoglutarate, in Assay Buffer) and the mixture is incubated for 90 minutes at room temperature. The reaction is terminated with the addition of 25 μl of Detection Buffer (36 μg/ml diaphorase, […], in 1× Assay Buffer), and is incubated for 1 minute before reading on a SpectraMax platereader at Ex544/Em590.
Compounds are assayed for their activity against IDH1 R132C following the same assay as above with the following modifications: Assay Buffer is (50 mM potassium phosphate, pH 6.5; 40 mM sodium carbonate, 5 mM MgCl2, 10% glycerol, 2 mM b-mercaptoethanol, and 0.03% BSA). The concentration of NADPH and alpha-ketoglutarate in the Substrate Buffer is 20 μM and 1 mM, respectively.
Representative compounds of formula I set forth in Table 1 were tested in this assay and the results are set forth below in Table 3.

The test system of assay [2] is HT1080 cells. The assay is described as follows: Cellular assay, inhibition of 2-HG production (LC-MS) in HT1080 cells. To be noted: Homo sapiens, HT-1080, 48 hours, LC-MS of media. The class given is cell-based. In a few lines: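 HT1080 cells (5000/well) were incubated 48 hours with compound, 0.2% DMSO final. Medium 2-HG was quantified by LC-MS, and IC50 was taken as the concentration giving 50% reduction versus DMSO control. Viability was read by CellTiter-Glo luminescence at 72 hours.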

Assay [3] deals with IDH1 R132H (Homo sapiens, UniProt O75874, R132H). The assay is described as follows: In vitro NADPH depletion assay for IDH1m R132H inhibitors. To be noted: enzyme, diaphorase/resazurin readout, read-out: IDH R132H IC50. The class given is biochemical. In a few lines:
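IDH1-R132H homodimer […] was preincubated with compound for 60 min at room temperature in 20 mM Tris-Cl pH 7.5, 150 mM NaCl, 10 mM MgCl2, 0.05% BSA, 2 mM b-mercaptoethanol. Substrate mix (NADPH, 5 mM alpha-ketoglutarate) then reacted for 90 min. Remaining NADPH was read by diaphorase/resazurin fluorescence at Ex544/Em590.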

Chain of IDH1 R132C (O75874 whole entry R132C): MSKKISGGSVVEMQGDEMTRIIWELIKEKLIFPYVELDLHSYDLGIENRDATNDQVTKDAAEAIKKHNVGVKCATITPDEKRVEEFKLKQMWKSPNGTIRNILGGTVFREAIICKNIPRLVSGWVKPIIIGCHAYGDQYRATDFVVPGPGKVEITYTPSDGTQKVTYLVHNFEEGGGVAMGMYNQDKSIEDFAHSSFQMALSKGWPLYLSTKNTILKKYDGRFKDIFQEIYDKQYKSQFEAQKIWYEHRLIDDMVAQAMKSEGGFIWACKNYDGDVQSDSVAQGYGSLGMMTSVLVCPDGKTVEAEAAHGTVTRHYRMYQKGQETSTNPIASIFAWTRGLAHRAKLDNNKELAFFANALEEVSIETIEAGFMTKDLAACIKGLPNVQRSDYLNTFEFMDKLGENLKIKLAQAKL
Chain of IDH1 R132H (O75874 whole entry R132H): as the sequence (O75874 whole entry R132C) above, with C132H counted along it

On to `C[C@H]1CC[C@@H](C(=O)N(c2cccc(F)c2)[C@H](C(=O)NC2CCC(F)(F)CC2)c2ccccc2Cl)N1c1ncccn1` [Compound 111, (2S,5S)—N—((S)-1-(2-chlorophenyl)-2-(4,4-difluorocyclohexylamino)-2-oxoethyl)-N-(3-fluorophenyl)-5-methyl-1-(pyrimidin-2-yl)pyrrolidine-2-carboxamide], for which the IC50 in assay [1] is not above 100 nM; in assay [2], 100 to 500 nM; in assay [3], not above 100 nM.
With `C[C@H]1CC[C@@H](C(=O)N(c2cccc(F)c2)[C@@H](C(=O)NC2CC(F)(F)C2)c2ccccc2Cl)N1c1ncccn1` [Compound 112, (2S,5S)—N—((R)-1-(2-chlorophenyl)-2-(3,3-difluorocyclobutylamino)-2-oxoethyl)-N-(3-fluorophenyl)-5-methyl-1-(pyrimidin-2-yl)pyrrolidine-2-carboxamide], the IC50 in assay [1] was not above 100 nM; in assay [2], 100 to 500 nM; in assay [3], 100 to 500 nM.
On to `C[C@H]1CC[C@@H](C(=O)N(c2cccc(F)c2)[C@H](C(=O)NC2CC(F)(F)C2)c2ccccc2Cl)N1c1ncccn1` [Compound 113, (2S,5S)—N—((S)-1-(2-chlorophenyl)-2-(3,3-difluorocyclobutylamino)-2-oxoethyl)-N-(3-fluorophenyl)-5-methyl-1-(pyrimidin-2-yl)pyrrolidine-2-carboxamide], for which the IC50 in assay [1] is not above 100 nM; in assay [2] it was 100 to 500 nM; in assay [3] it was not above 100 nM.

A word on the IC50: it is the concentration that inhibits the measured activity by half.
